Reference: PMC11141866, “Pyrimidine depletion enhances targeted and immune therapy combinations in acute myeloid leukemia” (JCI Insight, 2024)
Where “and” joins values, the source holds several entries; their conditions need not be identical. Equal values may be shown once. Read-outs that look alike come from different tables or passages of the source.

Columns and labels:
[1] = biological target: T1, human DHODH (hDHODH, amino acid residues 31-395) (Homo sapiens, UniProt Q02127); assay: Cell-free human DHODH enzyme inhibition assay; type: biochemical
T1 construct: purchased Reaction Biology (assay run there as a service)
Method: Details are described in the Supplemental Methods. […]
Enzyme inhibition of human DHODH […]
performed at Reaction Biology (Malvern, PA, USA). Briefly, a two-step fluorescence-based assay was used to test compounds in duplicates using a 10-dose IC50 mode with 3-fold serial dilution starting at 1 µM or 10 µM. The enzymatic step for hDHODH (used at […]
to orotate and followed by resazurin (used at 60 or 80 µM per reaction) catalyzed to […]
resorufin. […]

Mouse DHODH = Mouse DHODH (Mus musculus, UniProt O35435); assay: Cell-free multi-species DHODH enzyme inhibition assay, mouse; type: biochemical; details: n=1
OCI-AML3 = assay: MTS proliferation assay, OCI-AML3; type: cell-based; details: Homo sapiens, OCI-AML-3; OCI-AML3, 96-hour treatment; read-out: IC50 (MTS proliferation)
Method: (§1) A total of 10,000–20,000 cells from different AML lines or 50,000–75,000 cells of primary AML blasts were treated in a 96-well plate for 72 hours or 96 hours at 37°C, 5% CO2. CellTiter 96 Aqueous MTS reagent (Promega) was added to cells followed by a 3-hour incubation at 37°C, 5% CO2. The absorbance was measured at 490 nm using DTX 880 plate reader, and the IC50 was calculated using GraphPad Prism.

U937 = assay: MTS proliferation assay, U937; type: cell-based; details: Homo sapiens, U-937; U937, 96-hour treatment; read-out: IC50 (MTS proliferation)
Method: as §1

[2] = system: MOLM-13 disseminated CDX AML model; assay: MOLM-13 CDX efficacy study correlated with PK/PD (survival); type: in vivo
Method: Male 8- to 12-week-old NCG mice were engrafted with 1 × 10^5 cells via tail vein i.v. injection. Four days after engraftment (day 1 of treatment), mice (n = 9–10/arm) were randomized to receive p.o. qd vehicle (40% HPβCD) or p.o. qd HOSU-53 at 4, 10, and 20 mg/kg or 30 mg/kg biwk till moribundity or end of study, day 73. An additional study was done for PK/PD correlation with the survival study where 9 mice per group were randomized to receive p.o. qd vehicle (40% HPβCD) or p.o. qd HOSU-53 at 4, 10, and 20 mg/kg or 30 mg/kg biwk till day 14. Mice were bled for plasma collection to analyze HOSU-53 and DHO concentrations 1 day after the first dose and on day 14 for cumulative plasma concentration analysis. Figure 3B and Figure 4, A and B, share the same vehicle group.

[3] = system: HL-60 disseminated CDX model; assay: HL-60 CDX synergy with decitabine; type: in vivo, NCG mice; details: Decitabine 0.4 mpk IP (4on/10off), HOSU53 10 mpk p.o. qd, or both; flag 0 = censored at day 82
Method: Female 8- to 12-week-old female NCG mice were engrafted with 1 × 10^7 cells via tail vein i.v. injection. At 14 days after engraftment (day 1 of treatment), mice (n = 10/arm) were randomized to receive p.o. qd and i.p. vehicle (p.o. qd 40% HPβCD and 4 on/10 off i.p. PBS), 10 mg/kg HOSU-53, i.p. 0.4 mg/kg decitabine on a 4-day on/10-day off cycle, or their combination till moribundity or end of study day 82.

[4] = system: primary AML patient samples; assay: Flow cytometry viability, primary AML long-term culture; type: cell-based, human
Method: (§2) Cells were thawed in 50% FBS RPMI and then cultured in StemSpan (StemCell Technologies) media supplemented with human FLT3L, SCF, GM-CSF, G-CSF, IL-3, IL-6, TPO, and EPO cytokines for 7 days (LTC).
(§3) After 72 hours or 7 days of treatment of DHODHi, cells were collected and washed with PBS, blocked with human Fc block (BioLegend), and stained with antibodies for 30 minutes on ice. Antibodies were washed off and cells resuspended in FACS buffer (2% FBS, 2 mM NaN3, Dulbecco’s PBS) for analysis using BD LSRFortessa or Cytek Aurora spectral flow cytometer. Live/dead exclusion was done using LIVE/DEAD Fixable Near-IR (Invitrogen). All antibodies were purchased from BioLegend except CD47, which was purchased from BD Biosciences: CD11b clone M1/70, CD38 clone HIT2, CD14 clone M5E2, CD47 clone B6H12, CD33 clone WM53, CD3 clone UCHT1, CD19 clone HIB19, and CD45 clone HI30.
(§4) Supplemental Figure S.2. […] A).
Flow cytometry analysis of viable primary AML patient samples (n=10) treated in vitro for seven days
(long term culture, LTC). […]

[5] = system: primary AML patient sample; assay: Flow cytometry CD11b/CD14 differentiation, primary AML long-term culture; type: cell-based, human; details: 7 days LTC
Method: as §2, §3, §4
Flow cytometry analysis of viable primary AML patient samples (n=10) treated in vitro for seven days (long term culture, LTC). Live cells were measured using LIVE/DEAD™ Fixable Near-IR (NIR) gated on singlet cells. […] Images were taken using BioTek Cytation 5 Cell Imaging Multimode Reader at 20x magnification. […]

PPARγ = biological target: T2, PPARγ (Homo sapiens, UniProt P37231); assay: CEREP Safety Screen 87; type: binding; details: 1 µM
T2 construct: purchased CEREP (Safety Screen 87 panel, as the earlier reading names the assay)
Excerpt: Supplement jciinsight-9-173646-s083.xlsx, sheet "Supplemental Table S.2." | column: HOSU-53

T1 sequence (Q02127 31-395): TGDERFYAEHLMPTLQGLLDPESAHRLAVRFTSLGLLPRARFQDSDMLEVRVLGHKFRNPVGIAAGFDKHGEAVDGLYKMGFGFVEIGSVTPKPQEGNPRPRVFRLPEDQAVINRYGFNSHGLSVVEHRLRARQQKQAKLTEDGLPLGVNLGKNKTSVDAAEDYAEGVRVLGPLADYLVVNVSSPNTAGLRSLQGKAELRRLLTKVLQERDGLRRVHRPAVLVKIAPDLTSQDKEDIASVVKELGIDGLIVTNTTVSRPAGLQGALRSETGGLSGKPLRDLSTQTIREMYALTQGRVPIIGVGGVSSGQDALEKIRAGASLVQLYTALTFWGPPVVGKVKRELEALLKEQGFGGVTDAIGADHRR
T2 sequence (P37231 whole entry): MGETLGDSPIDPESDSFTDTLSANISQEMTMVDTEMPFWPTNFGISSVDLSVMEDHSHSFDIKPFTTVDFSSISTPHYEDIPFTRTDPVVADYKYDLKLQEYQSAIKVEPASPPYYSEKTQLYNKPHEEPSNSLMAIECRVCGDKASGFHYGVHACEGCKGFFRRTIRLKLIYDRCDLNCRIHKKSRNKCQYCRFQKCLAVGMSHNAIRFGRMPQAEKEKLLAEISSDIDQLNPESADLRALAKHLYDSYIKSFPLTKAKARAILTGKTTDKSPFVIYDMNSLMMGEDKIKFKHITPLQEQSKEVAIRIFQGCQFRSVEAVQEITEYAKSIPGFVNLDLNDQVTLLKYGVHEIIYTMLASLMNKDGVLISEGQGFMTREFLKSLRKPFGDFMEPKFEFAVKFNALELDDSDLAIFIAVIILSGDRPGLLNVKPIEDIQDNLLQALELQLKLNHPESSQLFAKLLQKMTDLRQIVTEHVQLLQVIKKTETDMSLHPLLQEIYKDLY
Sequence of Mouse DHODH (O35435 whole entry): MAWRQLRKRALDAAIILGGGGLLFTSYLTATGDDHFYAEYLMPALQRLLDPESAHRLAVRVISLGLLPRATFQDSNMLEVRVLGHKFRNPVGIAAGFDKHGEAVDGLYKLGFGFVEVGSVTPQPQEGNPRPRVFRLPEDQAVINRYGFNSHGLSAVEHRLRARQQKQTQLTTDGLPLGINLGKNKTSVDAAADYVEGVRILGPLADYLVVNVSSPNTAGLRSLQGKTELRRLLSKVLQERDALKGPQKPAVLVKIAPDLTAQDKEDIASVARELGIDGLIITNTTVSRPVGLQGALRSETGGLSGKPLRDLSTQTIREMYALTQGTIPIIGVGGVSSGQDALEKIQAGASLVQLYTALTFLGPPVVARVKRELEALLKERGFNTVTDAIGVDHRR

Compound: CCCCOc1cccc(-c2ccc(-c3cc(C(=O)O)c4cc(F)ccc4n3)cc2)c1 [HOSU-53]
- IC50 ([1]; cell-free multi-species assay, n=1, read-out: DHODH IC50 Human): 0.69 nM
- IC50 ([1]; cell-free, HOSU-53, BAY, BRQ averaged from 6, 10, 4 replicates, read-out: hDHODH IC50): 0.95 nM
- IC50 (Mouse DHODH): 2.1 nM
- IC50 (OCI-AML3): 20 nM
- IC50 (U937): 33 nM
- median survival ([2]; 10 mg/kg daily p.o.): 55 days
- tolerability ([2]; 20 mg/kg daily p.o.): intolerable in approximately half the mice
- median survival ([2]; 30 mg/kg twice weekly p.o.): 48 days
- tolerability ([2]; 30 mg/kg twice weekly p.o.): well tolerated
- Survival, day of study at event (per animal) ([2]; 4 mpk poqd): 44 days and 46 days and 43 days and 45 days and 36 days
- Survival, day of study at event (per animal) ([2]; 10mpk poqd): 55 days and 52 days and 47 days and 60 days and 59 days and 49 days and 63 days and 58 days
- Survival, day of study at event (per animal) ([2]; 20mpk poqd, flag 0 = censored): ≥ 73 days and 69 days and 46 days and 41 days and 40 days and 71 days and 11 days and 31 days
- Survival, day of study at event (per animal) ([2]; 30mpk biwk): 50 days and 43 days and 42 days and 48 days and 46 days and 52 days and 44 days and 49 days
- Survival, day of study at event (per animal) [3]: 57 days and 52 days and 56 days and 58 days and 55 days
- % Live (Near-IR negative) ([4]; Pt.12, 50nM, DMSO 56.46): 60.99%
- % Live (Near-IR negative) ([4]; Pt.12, 100nM, DMSO 56.46): 59.36%
- % Live (Near-IR negative) ([4]; Pt.13, 50nM, DMSO 72.92): 72.53%
- % Live (Near-IR negative) ([4]; Pt.13, 100nM, DMSO 72.92): 66.43%
- % Live (Near-IR negative) ([4]; Pt.14, 50nM, DMSO 68.39): 70.9%
- % Live (Near-IR negative) ([4]; Pt.14, 100nM, DMSO 68.39): 55.21%
- % Live (Near-IR negative) ([4]; Pt.15, 50nM, DMSO 61.7): 41.58%
- % Live (Near-IR negative) ([4]; Pt.15, 100nM, DMSO 61.7): 27.92%
- % Live (Near-IR negative) ([4]; Pt.16, 50nM, DMSO 45.99): 41.34%
- % Live (Near-IR negative) ([4]; Pt.16, 100nM, DMSO 45.99): 32.16%
- % Live (Near-IR negative) ([4]; Pt.17, 50nM, DMSO 29.84): 29.21%
- % Live (Near-IR negative) ([4]; Pt.17, 100nM, DMSO 29.84): 25.94%
- % Live (Near-IR negative) ([4]; Pt.18, 50nM, DMSO 29.72): 26.96%
- % Live (Near-IR negative) ([4]; Pt.18, 100nM, DMSO 29.72): 23.34%
- % Live (Near-IR negative) ([4]; Pt.19, 50nM, DMSO 75.66): 74.9%
- % Live (Near-IR negative) ([4]; Pt.19, 100nM, DMSO 75.66): 58.74%
- % Live (Near-IR negative) ([4]; Pt.20, 50nM, DMSO 67.67): 44.64%
- % Live (Near-IR negative) ([4]; Pt.20, 100nM, DMSO 67.67): 42.59%
- % Live (Near-IR negative) ([4]; Pt.2, 50nM, DMSO 78.52): 59.04%
- % Live (Near-IR negative) ([4]; Pt.2, 100nM, DMSO 78.52): 32.63%
- cell viability ([4]; primary AML samples, 7 days LTC): reduced cell viability
- CD11b+CD14+ cells [5]: increased
- CEREP Safety Screen 87: PPARγ binding (PPARγ): PPARγ (66% binding at 1 µM)
